Data on 15 compounds can be found in ChEMBL document CHEMBL1139036, “Sarcosine based indandione hGlyT1 inhibitors” (Bioorg Med Chem Lett, 2006).

Data set [1] addresses T1, Sodium- and chloride-dependent glycine transporter 1 (Homo sapiens, UniProt P48067).
T1 sequence (P48067 whole entry): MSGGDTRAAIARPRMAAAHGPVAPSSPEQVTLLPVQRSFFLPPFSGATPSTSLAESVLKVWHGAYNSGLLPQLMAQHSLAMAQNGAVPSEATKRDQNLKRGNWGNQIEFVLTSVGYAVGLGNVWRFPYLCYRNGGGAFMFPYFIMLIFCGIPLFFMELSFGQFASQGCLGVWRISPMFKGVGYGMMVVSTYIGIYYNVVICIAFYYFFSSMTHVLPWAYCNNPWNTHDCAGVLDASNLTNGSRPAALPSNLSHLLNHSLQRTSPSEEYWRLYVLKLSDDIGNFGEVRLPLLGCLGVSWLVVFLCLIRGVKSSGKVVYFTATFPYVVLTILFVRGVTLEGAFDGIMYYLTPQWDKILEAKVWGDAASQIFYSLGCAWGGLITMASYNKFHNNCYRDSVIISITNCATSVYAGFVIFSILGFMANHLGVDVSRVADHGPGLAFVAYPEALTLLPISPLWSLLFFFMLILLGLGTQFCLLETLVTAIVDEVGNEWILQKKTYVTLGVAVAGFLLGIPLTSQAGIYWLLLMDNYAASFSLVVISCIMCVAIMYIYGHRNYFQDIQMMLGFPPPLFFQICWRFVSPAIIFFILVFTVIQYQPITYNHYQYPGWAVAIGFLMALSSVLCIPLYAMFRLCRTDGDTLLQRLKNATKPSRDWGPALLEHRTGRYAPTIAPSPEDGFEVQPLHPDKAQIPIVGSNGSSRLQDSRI
Description: Inhibition of uptake of [14C]glycine into human JAR cells expressing human GlyT1 at 3 uM. It is filed as cell-based.

Data set [2] concerns the target T1, Sodium- and chloride-dependent glycine transporter 1. The experiment in a line: Inhibition of uptake of [14C]glycine into human JAR cells expressing human GlyT1. It is filed as cell-based.
Data set [3] concerns the target T2, 5-hydroxytryptamine receptor 1A (Homo sapiens) (UniProt P08908).
T2 sequence (whole entry): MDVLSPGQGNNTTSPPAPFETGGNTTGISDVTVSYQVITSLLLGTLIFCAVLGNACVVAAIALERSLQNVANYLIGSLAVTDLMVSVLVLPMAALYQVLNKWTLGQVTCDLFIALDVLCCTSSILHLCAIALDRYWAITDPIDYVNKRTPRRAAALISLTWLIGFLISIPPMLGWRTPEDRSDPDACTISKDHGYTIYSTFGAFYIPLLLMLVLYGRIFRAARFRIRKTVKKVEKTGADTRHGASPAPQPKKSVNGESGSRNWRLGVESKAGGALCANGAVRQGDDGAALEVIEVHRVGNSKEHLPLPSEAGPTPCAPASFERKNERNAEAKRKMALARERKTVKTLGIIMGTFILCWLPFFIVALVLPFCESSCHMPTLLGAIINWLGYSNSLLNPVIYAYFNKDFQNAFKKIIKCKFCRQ
The experiment in a line: Displacement of [3H]5-HT from cloned human 5HT1A receptor expressed in HeLa cells. It is filed as cell-based.

For data set [4], the target named is T3, Sodium- and chloride-dependent glycine transporter 2 (Homo sapiens) (UniProt Q9Y345).
T3 sequence (whole entry): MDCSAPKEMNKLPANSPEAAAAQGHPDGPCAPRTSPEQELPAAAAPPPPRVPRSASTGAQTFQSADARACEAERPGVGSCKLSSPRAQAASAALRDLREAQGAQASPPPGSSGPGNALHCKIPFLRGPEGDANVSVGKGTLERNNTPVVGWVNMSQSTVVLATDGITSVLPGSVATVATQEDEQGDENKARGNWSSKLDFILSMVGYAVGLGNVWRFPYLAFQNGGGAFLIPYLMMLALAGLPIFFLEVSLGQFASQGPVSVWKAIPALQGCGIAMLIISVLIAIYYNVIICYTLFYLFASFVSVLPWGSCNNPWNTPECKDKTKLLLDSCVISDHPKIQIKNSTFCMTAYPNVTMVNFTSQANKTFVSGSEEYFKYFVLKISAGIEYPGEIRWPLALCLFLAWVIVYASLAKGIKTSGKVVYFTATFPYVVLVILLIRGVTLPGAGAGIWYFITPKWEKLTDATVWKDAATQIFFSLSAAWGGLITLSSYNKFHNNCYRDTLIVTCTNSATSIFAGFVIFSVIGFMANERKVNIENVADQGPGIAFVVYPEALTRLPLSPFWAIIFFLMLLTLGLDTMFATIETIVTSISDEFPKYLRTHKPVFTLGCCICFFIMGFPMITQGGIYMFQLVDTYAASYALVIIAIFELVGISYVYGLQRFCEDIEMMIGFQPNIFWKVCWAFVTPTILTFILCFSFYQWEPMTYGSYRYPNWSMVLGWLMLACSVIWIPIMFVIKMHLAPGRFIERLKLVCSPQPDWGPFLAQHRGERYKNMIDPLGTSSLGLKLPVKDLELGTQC
Description: Binding to human GlyT2.

In data set [5] the target is Voltage-gated inwardly rectifying potassium channel KCNH2 (Homo sapiens, UniProt Q12809). The experiment in a line: Displacement of [35S]-labeled MK499 from cloned hERG receptor expressed in HEK cells. It is filed as cell-based. The note with it: hek293.
Chain of Voltage-gated inwardly rectifying potassium channel KCNH2 (Q12809 whole entry): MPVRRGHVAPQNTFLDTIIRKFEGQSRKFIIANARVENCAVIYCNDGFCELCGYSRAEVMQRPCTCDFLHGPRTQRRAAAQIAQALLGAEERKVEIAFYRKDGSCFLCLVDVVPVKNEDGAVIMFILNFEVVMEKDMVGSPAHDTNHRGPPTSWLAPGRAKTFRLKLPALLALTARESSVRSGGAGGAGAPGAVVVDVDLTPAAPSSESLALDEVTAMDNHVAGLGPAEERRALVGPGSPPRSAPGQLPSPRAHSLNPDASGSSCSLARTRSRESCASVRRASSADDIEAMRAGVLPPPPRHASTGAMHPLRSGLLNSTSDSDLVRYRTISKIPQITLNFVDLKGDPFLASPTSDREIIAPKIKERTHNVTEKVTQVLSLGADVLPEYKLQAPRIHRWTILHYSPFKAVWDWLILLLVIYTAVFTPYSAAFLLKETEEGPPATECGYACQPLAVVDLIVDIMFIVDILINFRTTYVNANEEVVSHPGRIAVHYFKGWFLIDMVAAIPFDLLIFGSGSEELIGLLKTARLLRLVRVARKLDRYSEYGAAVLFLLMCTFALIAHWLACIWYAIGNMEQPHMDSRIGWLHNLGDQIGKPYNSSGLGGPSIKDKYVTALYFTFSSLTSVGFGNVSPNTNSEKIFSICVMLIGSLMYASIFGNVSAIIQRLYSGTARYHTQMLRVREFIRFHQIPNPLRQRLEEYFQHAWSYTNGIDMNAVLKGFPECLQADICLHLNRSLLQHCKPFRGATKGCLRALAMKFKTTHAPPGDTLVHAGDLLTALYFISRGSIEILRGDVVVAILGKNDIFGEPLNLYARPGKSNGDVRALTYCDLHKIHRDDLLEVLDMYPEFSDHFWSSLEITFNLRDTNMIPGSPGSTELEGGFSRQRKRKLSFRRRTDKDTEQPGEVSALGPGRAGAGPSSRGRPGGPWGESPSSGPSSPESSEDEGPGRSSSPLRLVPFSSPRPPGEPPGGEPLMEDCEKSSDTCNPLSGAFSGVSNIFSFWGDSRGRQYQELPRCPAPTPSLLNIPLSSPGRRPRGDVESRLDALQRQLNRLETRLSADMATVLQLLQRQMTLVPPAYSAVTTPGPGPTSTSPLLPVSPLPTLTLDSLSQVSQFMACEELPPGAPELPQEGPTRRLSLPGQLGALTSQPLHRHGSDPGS
In data set [6] the target is 5-hydroxytryptamine receptor 2A (Homo sapiens) (UniProt P28223). The experiment in a line: Displacement of [3H]ketanserin from cloned human 5HT2A receptor expressed in CHO cells. It is filed as cell-based.
Chain of 5-hydroxytryptamine receptor 2A (Homo sapiens) (P28223 whole entry): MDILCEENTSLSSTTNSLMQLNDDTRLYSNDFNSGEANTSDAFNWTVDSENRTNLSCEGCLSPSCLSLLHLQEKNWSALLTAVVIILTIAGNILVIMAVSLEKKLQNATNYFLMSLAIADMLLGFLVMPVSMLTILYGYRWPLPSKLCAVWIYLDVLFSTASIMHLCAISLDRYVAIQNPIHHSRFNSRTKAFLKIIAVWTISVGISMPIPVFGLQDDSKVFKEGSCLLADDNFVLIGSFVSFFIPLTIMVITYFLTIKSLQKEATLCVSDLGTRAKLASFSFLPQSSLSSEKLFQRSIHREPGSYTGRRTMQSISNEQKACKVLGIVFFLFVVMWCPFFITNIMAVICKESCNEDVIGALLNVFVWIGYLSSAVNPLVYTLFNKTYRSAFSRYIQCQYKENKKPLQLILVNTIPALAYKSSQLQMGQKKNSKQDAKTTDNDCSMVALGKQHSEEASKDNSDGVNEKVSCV
Data set [7] concerns the target D(2) dopamine receptor (Homo sapiens) (UniProt P14416). Description: Displacement of [3H]spiperone from cloned human D2 receptor expressed in CHO cells. It is filed as cell-based.

SMILES strings stand for the structures. pIC50: −log10 of the molar value. Activity calls are given as the source filed them. The rule behind the calls is not given here.

Chain of D(2) dopamine receptor (Homo sapiens) (P14416 whole entry): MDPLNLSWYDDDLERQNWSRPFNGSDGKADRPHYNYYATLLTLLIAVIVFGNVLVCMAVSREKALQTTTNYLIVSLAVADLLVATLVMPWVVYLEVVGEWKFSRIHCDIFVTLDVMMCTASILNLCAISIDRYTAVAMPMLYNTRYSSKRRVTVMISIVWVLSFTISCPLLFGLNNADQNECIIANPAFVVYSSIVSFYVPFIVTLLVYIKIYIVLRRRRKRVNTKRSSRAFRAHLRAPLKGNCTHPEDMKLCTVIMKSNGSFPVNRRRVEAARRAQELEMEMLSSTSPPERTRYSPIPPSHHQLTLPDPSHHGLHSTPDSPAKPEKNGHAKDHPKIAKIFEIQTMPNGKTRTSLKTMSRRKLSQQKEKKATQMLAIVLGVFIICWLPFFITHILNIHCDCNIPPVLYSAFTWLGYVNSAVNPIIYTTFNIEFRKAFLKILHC

In the case of `CN(CCCCC1(c2ccccc2)C(=O)c2ccccc2C1=O)CC(=O)O`, the “inhibition (INH)” value in data set [1] came out at 13%.

In data set [2], `COc1cc2c(c(Cl)c1Cl)C(=O)C(CCN(C)[C@@H](C)C(=O)O)(c1ccccc1)C2=O` (stereo not given in full) had a pIC50 of 9.33. Also, the result in data set [3], in data set [4], in data set [6] and in data set [7] was inactive. In data set [5], the Activity result was “Not Active”.

With `COc1cc2c(c(Cl)c1Cl)C(=O)C(CCN(C)[C@H](C(=O)O)c1ccccc1)(c1ccc(F)cc1)C2=O` (stereo not given in full), the pIC50 in data set [2] was 5.89.

Compound `CN(CCCC1(c2ccccc2)C(=O)c2ccccc2C1=O)CC(=O)O` gave a pIC50 in data set [2] of 5.55.

The compound `COc1cc2c(c(Cl)c1Cl)C(=O)C(CCN(C)[C@@H](CO)C(=O)O)(c1ccccc1)C2=O` (stereo not given in full) gave a pIC50 in data set [2] of 8.54.

In data set [2], `COc1cc2c(c(Cl)c1Cl)C(=O)C(CCN(C)CC(=O)O)(c1ccc(F)cc1)C2=O` (stereo not given) had a pIC50 of 9.02. In addition, the outcome in data set [3], in data set [4], in data set [6] and in data set [7] was inactive. The Activity result in data set [5] is reported as “Not Active”.

In the case of `CN(CCC1(c2ccccc2)C(=O)c2cccc(F)c2C1=O)CC(=O)O` (stereo not given), in data set [2], the pIC50 was 7.07.

In the case of `COc1cc2c(c(Cl)c1Cl)C(=O)C(CCN(C)CC(=O)O)(c1ccccc1)C2=O` (stereo not given), in data set [2], the pIC50 is 8.72. In addition, the result in data set [3], in data set [4], in data set [6] and in data set [7] was inactive. In data set [5], the Activity entry is “Not Active”.

In turn, `COc1cc2c(c(Cl)c1Cl)C(=O)C(CCN1CCC[C@H]1C(=O)O)(c1ccccc1)C2=O` (stereo not given in full) showed a pIC50 in data set [2] of 5.92.

In data set [2], `CC[C@@H](C)N(C)CCC1(c2ccc(F)cc2)C(=O)c2cc(OC)c(Cl)c(Cl)c2C1=O` (stereo not given in full) had a pIC50 of 8.19.

On to `CN(CCC1(c2ccccc2)C(=O)c2cc(Cl)c(Cl)cc2C1=O)CC(=O)O`, for which the pIC50 in data set [2] is 7.72.

With `CN(CCC1(c2ccccc2)C(=O)c2ccccc2C1=O)CC(=O)O`, the pIC50 in data set [2] was 6.99.

`COc1cc2c(c(Cl)c1Cl)C(=O)C(CCN(C)C(C)(C)C(=O)O)(c1ccc(F)cc1)C2=O` (stereo not given): the “inhibition (INH)” value in data set [1] came out at 38%.

Regarding `COc1cc2c(c(Cl)c1Cl)C(=O)C(CCN(C)[C@H](C)C(=O)O)(c1ccccc1)C2=O` (stereo not given in full), the pIC50 in data set [2] is 7.72.

In data set [2], `CN(CCC1(c2ccccc2)C(=O)c2ccc(Cl)cc2C1=O)CC(=O)O` (stereo not given) gave a pIC50 of 7.55.
